Experiments:
Akt1W80A = Akt1W80A (Homo sapiens, UniProt P31749, W80A); details: previous studies; cited from earlier work
Akt2W80A = Akt2W80A (Homo sapiens, UniProt P31751, W80A); details: previous studies; cited from earlier work
WT KPC pancreatic tumors = experiment: Adoptive transfer of PI3K mutant-expressing T-cells plus BYL719 in tumor-bearing mice; format: in vivo; details: WT mice implanted with WT KPC cells
Experimental: To test the anti-tumor efficacy of CTLKPC clones that express one or more PI3K p110α mutants, one or more PI3K p110δ mutants or combinations of PI3K p110α and p110δ mutants, respectively, in vivo, WT mice are implanted with 0.5 million WT KPC cells in the pancreas. After 2 weeks, the pancreatic tumors are well established and are quantified by IVIS imaging. […] Changes in tumor size are monitored by IVIS imaging and survival curves are constructed. Post-mortem examination is performed as described above for analyzing the pancreas. Tumor regression is observed only in the groups that receive adoptive transfer of PI3K mutant-expressing T-cells, plus concurrent treatment with the appropriate PI3K inhibitor.

Akt1W80A, sequence (P31749 whole entry W80A): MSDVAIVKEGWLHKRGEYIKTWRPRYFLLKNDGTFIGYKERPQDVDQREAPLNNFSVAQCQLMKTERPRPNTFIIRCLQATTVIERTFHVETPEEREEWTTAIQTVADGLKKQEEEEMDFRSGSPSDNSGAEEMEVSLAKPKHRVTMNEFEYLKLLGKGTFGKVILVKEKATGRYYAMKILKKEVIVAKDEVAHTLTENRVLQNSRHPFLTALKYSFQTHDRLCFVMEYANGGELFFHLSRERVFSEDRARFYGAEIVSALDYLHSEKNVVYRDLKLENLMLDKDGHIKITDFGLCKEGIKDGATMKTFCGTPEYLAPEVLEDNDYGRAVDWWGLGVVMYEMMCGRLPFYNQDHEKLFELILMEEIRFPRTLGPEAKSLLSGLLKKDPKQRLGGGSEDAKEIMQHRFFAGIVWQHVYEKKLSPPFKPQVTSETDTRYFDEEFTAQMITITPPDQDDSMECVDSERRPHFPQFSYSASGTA
Akt2W80A, sequence (P31751 whole entry W80A): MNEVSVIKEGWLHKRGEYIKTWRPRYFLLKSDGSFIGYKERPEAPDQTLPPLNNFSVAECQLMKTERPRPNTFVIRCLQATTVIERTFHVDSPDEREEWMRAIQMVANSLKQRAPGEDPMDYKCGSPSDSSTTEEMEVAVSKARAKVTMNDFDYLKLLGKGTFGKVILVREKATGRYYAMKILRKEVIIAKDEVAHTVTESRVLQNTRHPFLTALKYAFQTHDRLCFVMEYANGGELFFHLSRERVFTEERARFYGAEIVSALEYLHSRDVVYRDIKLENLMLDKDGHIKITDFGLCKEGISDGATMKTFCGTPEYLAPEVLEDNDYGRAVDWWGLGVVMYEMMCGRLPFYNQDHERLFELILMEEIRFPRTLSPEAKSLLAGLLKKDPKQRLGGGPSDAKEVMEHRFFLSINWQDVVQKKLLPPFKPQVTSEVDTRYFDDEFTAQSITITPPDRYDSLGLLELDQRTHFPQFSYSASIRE

Row | Compound | inhibition of Akt1W80A mutant (Akt1W80A) | inhibition of Akt2W80A mutant (Akt2W80A) | survival (WT KPC pancreatic tumors)
1 | NC1(c2ccc(-c3nc4ccn5c(=O)[nH]nc5c4cc3-c3ccccc3)cc2)CCC1 [MK2206] | completely resistant | completely resistant | –
2 | Cc1nc(NC(=O)N2CCC[C@H]2C(N)=O)sc1-c1ccnc(C(C)(C)C(F)(F)F)c1 [BYL719] | – | – | all die from pancreatic tumor progression

— patent publication US20230270855A1, “Genetically Modified T-Cells and PI3K/AKT Inhibitors For Cancer Treatment” (The Research Foundation for The State of University New York, priority 2018, published 2023)
